# Reference: PMC5601486, “Identification of 4-phenylquinolin-2(1H)-one as a specific allosteric inhibitor of Akt” (Scientific Reports, 2017)
# Tests used:
# DAPK1 = assay: KINOMEscan; settings: 50000 nM
# Experimental: KINOMEscan™ selectivity screen
# (§1) The assay was perfor med at DiscoveRx Corporation according the methods published previously5. Briefly, Kinase-tagged T7 phage strains were grown in parallel in an E. coli host derived from the BL21 strain. E. coli were grown to log-phase and infected with T7 phage from a frozen stock and incubated with shaking at 32°C until lysis (90-150 minutes). The kinases were produced in HEK-293 cells and subsequently tagged with DNA for qPCR detection. Streptavidin-coated magnetic beads were treated with biotinylated small molecule ligands to generate affinity resins for kinase
# (§2) inhibitor or DMSO control was performed in polypropylene 384-well plates for 1 hr at room temperature. After wash with PBS buffer containing 0.05% Tween 20, the beads were incubated in elution buffer (PBS containing 0.05 % Tween 20 and 0.5 μM non-biotinylated affinity ligand) for 30 minutes at room temperature. The kinase concentration in the eluates was measured by qPCR.
# EPHA8 = assay: KINOMEscan; settings: 50000 nM
# Experimental: KINOMEscan™ selectivity screen
# as §1, §2
# CAMK1G = assay: KINOMEscan; settings: 50000 nM
# Experimental: KINOMEscan™ selectivity screen
# (§3) Briefly, Kinase-tagged T7 phage strains were grown in parallel in an E. coli host derived from the BL21 strain. E. coli were grown to log-phase and infected with T7 phage from a frozen stock and incubated with shaking at 32°C until lysis (90-150 minutes). The kinases were produced in HEK-293 cells and subsequently tagged with DNA for qPCR detection. Streptavidin-coated magnetic beads were treated with biotinylated small molecule ligands to generate affinity resins for kinase
# as §2
# LRRK2(G2019S) = assay: KINOMEscan; settings: 50000 nM
# Experimental: KINOMEscan™ selectivity screen
# as §1, §2
# EGFR(L861Q) = assay: KINOMEscan; settings: 50000 nM
# Experimental: KINOMEscan™ selectivity screen
# as §3, §2
# GRK2 = assay: KINOMEscan; settings: 50000 nM
# Experimental: KINOMEscan™ selectivity screen
# as §3, §2
# CAMK1D = assay: KINOMEscan; settings: 50000 nM
# Experimental: as §3, §2
# [1] = system: RPS6KA5(Kin.Dom.1-N-terminal); assay: KINOMEscan; settings: 50000 nM
# Experimental: KINOMEscan™ selectivity screen
# as §1, §2
# LTK = assay: KINOMEscan; settings: 50000 nM
# Experimental: KINOMEscan™ selectivity screen
# as §1, §2
# CSNK1A1 = assay: KINOMEscan; settings: 50000 nM
# Experimental: KINOMEscan™ selectivity screen
# as §1, §2
# PFTK1 = assay: KINOMEscan; settings: 50000 nM
# Experimental: KINOMEscan™ selectivity screen
# as §3, §2
# MAP3K2 = assay: KINOMEscan; settings: 50000 nM
# Experimental: KINOMEscan™ selectivity screen
# as §1, §2
# [2] = system: RPS6KA4(Kin.Dom.1-N-terminal); assay: KINOMEscan; settings: 50000 nM
# Experimental: KINOMEscan™ selectivity screen
# as §3, §2
# ERK5 = assay: KINOMEscan; settings: 50000 nM
# Experimental: KINOMEscan™ selectivity screen
# as §3, §2
# BMX = assay: KINOMEscan; settings: 50000 nM
# Experimental: KINOMEscan™ selectivity screen
# as §3, §2
# PIK3C2G = assay: KINOMEscan; settings: 50000 nM
# Experimental: KINOMEscan™ selectivity screen
# as §1, §2
# RIPK1 = assay: KINOMEscan; settings: 50000 nM
# Experimental: KINOMEscan™ selectivity screen
# as §1, §2
# p38-gamma = assay: KINOMEscan; settings: 50000 nM
# Experimental: KINOMEscan™ selectivity screen
# as §3, §2
# RET(V804L) = assay: KINOMEscan; settings: 50000 nM
# Experimental: KINOMEscan™ selectivity screen
# as §1, §2
# EPHA5 = assay: KINOMEscan; settings: 50000 nM
# Experimental: KINOMEscan™ selectivity screen
# as §1, §2
# MAPKAPK5 = assay: KINOMEscan; settings: 50000 nM
# Experimental: KINOMEscan™ selectivity screen
# as §1, §2
# CTK = assay: KINOMEscan; settings: 50000 nM
# Experimental: KINOMEscan™ selectivity screen
# as §3, §2
# PRKCI = assay: KINOMEscan; settings: 50000 nM
# Experimental: KINOMEscan™ selectivity screen
# as §1, §2
# TNK2 = assay: KINOMEscan; settings: 50000 nM
# Experimental: KINOMEscan™ selectivity screen
# as §1, §2
# ICK = assay: KINOMEscan; settings: 50000 nM
# Experimental: KINOMEscan™ selectivity screen
# as §3, §2
# TSSK3 = assay: KINOMEscan; settings: 50000 nM
# Experimental: KINOMEscan™ selectivity screen
# as §1, §2
# VEGFR2 = assay: KINOMEscan; settings: 50000 nM
# Experimental: KINOMEscan™ selectivity screen
# as §1, §2
# AKT2 = assay: KINOMEscan; settings: 50000 nM
# Experimental: KINOMEscan™ selectivity screen
# as §3, §2
# PKC = assay: Western blot of PKC phosphorylation; format: cell-based, Mouse; settings: Neuro 2A cells
# Experimental: Neuro 2A cells were seeded in 12-well plates in DMEM containing 5% FBS for 24 hr.
# After overnight serum starvation (in 0% FBS DMEM), cells were incubated for 30 min at 37 °C with G7 or LY294002 or Torin 1 (Sigma Aldrich) at various concentrations, or DMSO control. IGF-1 was added to each well at a final concentration of 100 ng/mL. After 30-min incubation cells were washed with cold PBS and lysed with 50 µL lysis buffer containing 1% Triton X-100 and protease/phosphatase inhibitors (Cell Signaling Technology) or RIPA buffer (Santa Cruz Biotech). Samples were electrophoresed in 4–12% Bis-Tris gels (Life Technologies) at 150 V using MOPS SDS running buffer. Proteins were transferred electrophoretically to a PVDF or nitrocellulose membrane. For detection of cleaved […]
# caspase 3 a Trans-Blot Turbo Transfer System (Bio-Rad, 25 V for 25 min) with PVDF membrane were used. […]
# anti- GAPDH (14C10) antibody (#2118) (all antibodies were from Cell Signaling Technology unless indicated, 1:1000 dilution was used) at 4°C overnight, washed three times with TBS-T, then incubated with peroxidase-conjugated secondary antibody (Sigma-Aldrich) for 1 hr at room temperature. […] Band intensity was quantitated using Kodak 1D imaging analysis software. […]
# EPHA7 = assay: KINOMEscan; settings: 50000 nM
# Experimental: KINOMEscan™ selectivity screen
# as §1, §2
# SRPK2 = assay: KINOMEscan; settings: 50000 nM
# Experimental: KINOMEscan™ selectivity screen
# (§4) The assay was perfor med at DiscoveRx Corporation according the methods published previously5. […] The kinases were produced in HEK-293 cells and subsequently tagged with DNA for qPCR detection. Streptavidin-coated magnetic beads were treated with biotinylated small molecule ligands to generate affinity resins for kinase
# as §2
# BRAF = assay: KINOMEscan; settings: 50000 nM
# Experimental: KINOMEscan™ selectivity screen
# as §1, §2
# YANK1 = assay: KINOMEscan; settings: 50000 nM
# Experimental: KINOMEscan™ selectivity screen
# as §3, §2
# ASK2 = assay: KINOMEscan; settings: 50000 nM
# Experimental: KINOMEscan™ selectivity screen
# as §3, §2
# ROCK2 = assay: KINOMEscan; settings: 50000 nM
# Experimental: KINOMEscan™ selectivity screen
# as §1, §2
# PHKG1 = assay: KINOMEscan; settings: 50000 nM
# Experimental: KINOMEscan™ selectivity screen
# as §3, §2
# ACVR1B = assay: KINOMEscan; settings: 50000 nM
# Experimental: KINOMEscan™ selectivity screen
# as §1, §2
# EPHB3 = assay: KINOMEscan; settings: 50000 nM
# Experimental: KINOMEscan™ selectivity screen
# as §4, §2
# TIE1 = assay: KINOMEscan; settings: 50000 nM
# Experimental: KINOMEscan™ selectivity screen
# as §4, §2
structure (smiles),measurement,setting,value
"Oc1cc(-c2ccccc2)c2ccccc2n1 [G7, 4-phenylquinolin-2(1H)-one]",Percent Control,DAPK1,63%
same,Percent Control,EPHA8,93%
same,Percent Control,CAMK1G,77%
same,Percent Control,LRRK2(G2019S),63%
same,Percent Control,EGFR(L861Q),71%
same,Percent Control,GRK2,91%
same,Percent Control,CAMK1D,87%
same,Percent Control,[1],89%
same,Percent Control,LTK,95%
same,Percent Control,CSNK1A1,80%
same,Percent Control,PFTK1,94%
same,Percent Control,MAP3K2,63%
same,Percent Control,[2],61%
same,Percent Control,ERK5,100%
same,Percent Control,BMX,86%
same,Percent Control,PIK3C2G,97%
same,Percent Control,RIPK1,100%
same,Percent Control,p38-gamma,100%
same,Percent Control,RET(V804L),83%
same,Percent Control,EPHA5,95%
same,Percent Control,MAPKAPK5,81%
same,Percent Control,CTK,74%
same,Percent Control,PRKCI,98%
same,Percent Control,TNK2,99%
same,Percent Control,ICK,71%
same,Percent Control,TSSK3,95%
same,Percent Control,VEGFR2,67%
same,Percent Control,AKT2,93%
same,phosphorylation (activation status) of PKC,PKC,did not alter
same,Percent Control,EPHA7,89%
same,Percent Control,SRPK2,84%
same,Percent Control,BRAF,84%
same,Percent Control,YANK1,100%
same,Percent Control,ASK2,78%
same,Percent Control,ROCK2,81%
same,Percent Control,PHKG1,79%
same,Percent Control,ACVR1B,100%
same,Percent Control,EPHB3,96%
same,Percent Control,TIE1,84%
